This is an account of results in patent publication EP4585606A1, “OL[…] USE AND COMPOSITION THEREOF” (Buddhist Tzu Chi Medical Foundation, priority 2022, dated 2024).

The subject of this test is human osteoblastic cells hFOB1.19. Nature of the test: alkaline phosphatase (ALP) activity, TRACP & ALP detection kit. The class given is cell-based. The following applies: hFOB1.19 not treated with the oligopeptides, CaCl2 0.01, 0.06, 0.2, 0.9 and 3.6 µM, 2 days. The method, then: The activity of alkaline phosphatase was measured by a TRACP & ALP detection kit. hFOB1.19 cells were cultured at 2×10^4 cells/well in a 96-well plate for 2 days. After removing the supernatant of the culture, the cells were resuspended in physiological saline. To each well 50 µl of the extract solution was added, and incubated at room temperature for 5 minutes. Then, 50 µl of the matrix solution was added to each well and reacted at 37°C for 60 minutes. Finally, 50 µl of 0.5N NaOH was added to each well to terminate the reaction. After formation of color, the solution was measured for the absorbance at 405 nm.
Alkaline phosphatase is present in bone at a high level, and frequently considered as the indicator for differentiation of osteoblastic cells and growth of bone. In Example 6, human osteoblastic cells hFOB1.19 was not treated with the oligopeptide at the condition of different concentrations of CaCl2, and was treated with the four oligopeptides (0.45 µM) described above at the condition of 3.6 µM CaCl2 for 2 days, to detect the ALP activities in human osteoblastic cells hFOB1.19. […] (In FIGs. 6A and 6B, three separate experiments were performed for each group, and the data were expressed by mean ± SD. Statistical significance: by one-tailed test, *P < 0.05, in respect to the Control groups (A-D).

As to `[Ca+2].[Cl-].[Cl-]` [CaCl2], the ALP activities result is on record as “no significant change”.
